Structure (SMILES)	melting point
CC(=O)OCc1c(-c2cc(Nc3cc4n(n3)CCN(C3COC3)C4)c(=O)n(C)n2)cccc1-n1ncc2cc(C(C)(C)C)cc(F)c2c1=O	180 to 185 °C
O=C(Nc1ccccc1)OCC1(COC(=O)Nc2ccccc2)CS(=O)c2ccccc2C1=O (centres undefined)	220 to 222 °C
CSCCS(=O)(=O)NCCCc1ccc(-c2ccc(=O)[nH]n2)cc1	173 to 174 °C
CSc1ccc(Cc2sc(NC(C)=O)nc2CCc2ccc(NC(=N)N)cc2)cc1	160 to 161 °C
C=C(C)C(=O)[C@@H]1CCCC[C@H]1C(=O)OC(c1ccccc1)c1ccccc1 (relative stereo)	90 to 95 °C
Cc1ccc2c(c1)C(=O)C(C#N)C2=O (centres undefined)	176 to 178 °C
O=c1c(O)cn(-c2cccc(C(F)(F)F)c2)nc1-c1ccnn1-c1ccccc1	246 to 248 °C
CN1CCCC(O)(c2cccc3c2ccn3C)C1 (centres undefined)	90 °C
Clc1ccc(-c2noc(CCC#Cc3ccccn3)n2)c(Cl)c1	77 to 78 °C
Cc1cccn2c(=O)c(C(=O)NC3CCCC3)cnc12	170 to 171 °C
O=c1[nH]c2cc([N+](=O)[O-])c3c(c2[nH]c1=O)CN(C(=S)Nc1ccccc1)CC3	270 to 274 °C
CN(C)S(=O)(=O)Oc1ccccc1S(N)(=O)=O	88 to 89 °C
CCOC(=O)C1(c2ccc(Cl)cc2)OCC(c2ccc(F)cc2)(c2ccc(F)cc2)CO1	150 °C
COc1ccc(-c2ccc(C(=O)O)cc2)cc1OCCCCc1ccccc1	178 to 179 °C
CCOC(=O)c1[nH]c2ccc(C)cc2c(=O)c1C	190 to 193 °C
COc1ccc(S(=O)(=O)N2C(=O)C(c3ccccc3OC)(N3Cc4ccccc4C[C@H]3C(=O)N(C)C)c3cc(Cl)c(Cl)cc32)c(OC)c1 (some centres undefined)	155 °C
Cc1cc2c(c(C3=NNC(=O)CC3)c1)OCC(=O)N2	266 to 270 °C
OCc1ncccc1OCc1ccccc1	78.7 to 79.2 °C
CC(=O)c1ccc(OCCCN2CCC(c3noc4cc(F)ccc34)CC2)c(CC(N)=O)c1	108 to 110 °C
NC(=O)c1nnn(Cc2cc(Br)cc(C(Cl)=C(Cl)Cl)c2)c1N	175 to 177 °C
N#Cc1ccc(CC(NC(=O)CC(NS(=O)(=O)c2ccc3ccccc3c2)c2ccccc2)C(=O)N2CCCC2)cc1 (centres undefined)	195 to 200 °C
COc1cccc(C(=O)Nc2ccc(CN3C(=O)[C@H]4CCC[C@H]4N(C(=O)CN4C(=O)c5ccccc5C4=O)c4ccccc43)cc2)c1 (relative stereo)	250 to 251 °C
Cc1ccc(-c2nc(-c3ccc(C)cc3C)nc(-c3ccc(OCCCCCCO)cc3O)n2)c(C)c1	117 to 118 °C
NC(=O)C1CCCc2c(C(=O)O)cccc21 (centres undefined)	247 to 249 °C
O=C1c2ccccc2C(=O)N1CCCCOc1ccccn1	77 to 78 °C

Structure (SMILES)	melting point
COc1ccc2[nH]c(C)c(C3CN4CCC3CC4)c2c1 (centres undefined)	232 to 234 °C
CCC(O)(CC(=O)OC(C)(C)C)c1ccn(Cc2cc3cc(OCc4ccccc4)c(F)cc3nc2I)c(=O)c1 (centres undefined)	174 °C
CC1=C(C(=O)OC(C)C)C(c2cccc([N+](=O)[O-])c2)N(C(=O)N(C)C)C(=O)N1 (centres undefined)	165 to 166 °C
CCOC(=O)CCc1cc(O)nn1-c1ccccc1	150 to 151 °C
CCCc1c(OCCCCCC(=O)c2ccc(OC)c(OC)c2)ccc(C(=O)O)c1O	114 to 117 °C
CC(C)=CCNc1ncnc2c1nc(N)n2C1OC(CO)C(O)C1O (centres undefined)	121 to 124 °C
Nc1ccccc1Cc1n[nH]c(Cl)n1	162 to 165 °C
CC1CCCC(C)(C)C1C(O)c1ccc(C(N)=NO)c(F)c1 (centres undefined)	154 to 156 °C
Cc1ccc(C)c2c1CCC2=NNC(N)=Nc1c(Cl)cccc1Cl	> 275 °C
COC(=O)c1ccc(NC(=O)c2cc(C(C)C)c(C(C)C)o2)cc1	198 to 200 °C
O=C(O)c1cccc(CN2CCC(c3cn(Cc4cccs4)c4ccccc34)CC2)c1	228 to 229 °C
CC(C)(C)OC(=O)N1CCC(c2nc3cc(-c4ccc(C(N)=O)c(F)c4)ccc3o2)CC1	202 to 206 °C
FC(F)(F)c1nnc(SCc2ccccc2Cl)s1	36 to 37 °C
CCc1ccc(-c2nnc(N3CCC(O)CC3)nc2-c2ccc(CC)cc2)cc1	164 to 166 °C
CC(C)CNC(=O)c1ccc(-c2ccc3nnn(Cc4ccc5ncccc5c4)c3n2)cc1F	158 to 160 °C
CC(C)Oc1ccc(Nc2nc(=O)n(C(C)C)c(=O)n2Cc2ccc(Cl)cc2)cc1Cl	167 °C
CC(=S)NCC1CN(c2ccc(N3CCC(=CC#N)C(F)C3)c(F)c2)C(=O)O1 (centres undefined)	137 to 138 °C
CC(C)(C)OC(=O)N1CC(=O)Nc2ccccc21	143 to 144 °C
c1ccc2c(c1)CCC1C2=NNC1c1ccncc1 (centres undefined)	169 to 173 °C
O=C(O)CCCc1cc2nc(C(F)(F)F)ccc2n1S(=O)(=O)c1ccc2c(c1)OCO2	161 °C
NC1CSC(c2ccsc2)CNC1=O (centres undefined)	190 to 191 °C
CC(=O)N1CCCn2nc(-c3ccncc3)c(-c3ccc(F)cc3)c21	184 to 185 °C
COC(=O)c1ccc2oc(-c3ccc(C(F)(F)F)cc3)cc2c1	180 °C
Cc1c(-c2ccccc2)n[nH]c1-c1ccccc1	225 to 226 °C
O=C(O)C1(S(=O)(=O)c2ccc(Oc3ccc(Cl)cc3)cc2)CCN(Cc2ccccc2)CC1	201 °C

Structure (SMILES)	melting point
CC(=O)NC(=O)CSC(C)=O	140 to 142 °C
Nc1nc2c(c(=O)[nH]1)S[C@H](CCc1ccc(C(=O)O)s1)CN2	283 to 285 °C
Clc1nc(-c2ccco2)c2ncn(Cc3ccc(Cl)c(Cl)c3)c2n1	191 to 193 °C
O=C(NC(=O)N(SN1CCCCC1=O)c1ccc(Oc2ccc(C(F)(F)F)cc2Cl)cc1F)c1c(F)cccc1F	139 to 141 °C
O=C1CN2Cc3c(ccc(Cl)c3Cl)N=C2N1	> 300 °C
OC(c1nccn1CCc1ccccc1)C1CCNCC1 (centres undefined)	145 °C
CC(O)C1C(=O)N2C(C(=O)OCc3ccc([N+](=O)[O-])cc3)C(=O)CC12 (mixture of isomers)	92 to 98 °C
CCCOc1ccc(C2CCCN3CCS(=O)(=O)N=C23)cc1 (centres undefined)	169 to 170 °C
CC(C)(C)N(N)C(=O)c1ccccc1	124 to 125 °C
CC(=O)C=Cc1c(C)c(C)c(C)c2c1OCC2	116 °C
CCOC(=O)Cc1cc2c(N=C3SC[C@@H]4Cc5ccccc5CN34)cccc2cn1	112 °C
OCc1ccccc1-c1cc(-c2ccccc2)on1	68 to 70 °C
COc1ccc(N(C)CCN(C)CCCN2CCc3cc(OC)c(OC)cc3NC2=O)cc1OC	117 to 119 °C
CCC(OC(C)=O)C(C)[N+](=O)[O-] (centres undefined)	73 to 75 °C
O=C(N[C@H]1C(=O)N[C@@H]1CCO)OCc1ccccc1	120 to 121 °C
COc1ccc(-n2nc(OCC(F)(F)F)nc2-c2ccc(OC)nc2)cc1	82 to 83 °C
S=c1nc(-c2ccncc2)[nH]n1Cc1ccccc1	160 to 162 °C
C=C(C)C(=O)Oc1ccc(NS(C)(=O)=O)cc1	129 to 131 °C
O=C(O)c1cc(C(F)(F)F)cc(Cl)c1-n1cnc(C(F)(F)F)cc1=O	225 °C
O=C(CC(C(=O)c1ccccc1)C(O)=S)c1ccccc1 (centres undefined)	142 to 144 °C
CCCCc1nc2ccccc2c(=O)[nH]1	153 to 155 °C
COc1cccc(C2SCCCS2)c1OC	119 to 120 °C
C#CC1(O)CCC2C3CCC4=CC(=O)CCC4C3C(=CF)CC21C (centres undefined)	188 to 190 °C
Cc1ccnc(C(=O)c2ccc(F)cc2)c1	98 to 100 °C
CC(C)(C)c1cc(C(=O)NCc2cccc(N)c2)cc(C(C)(C)C)c1O	171 to 172 °C

Structure (SMILES)	melting point
Cc1cccc(-c2cn(C)cc(-c3cccc(C)c3)c2=O)c1	148 to 150 °C
Clc1ccc2c(c1)CCC(N1CCCC1)=C2	117 to 118 °C
Cc1ccc2nc(CCl)cn2c1	88 to 89.2 °C
NS(=O)(=O)c1cccc(NC(=O)c2cnn3c(C(F)(F)F)cc(-c4ccc(C(F)(F)F)c(Cl)c4)nc23)c1	287 °C
O=C1C=CCC(CCc2ccc(Cl)cc2Cl)O1 (centres undefined)	69 to 70 °C
COc1cc(-c2csnc2C)cc2oc(=O)c(C)c(C)c12	163 to 165 °C
CCCCNc1cc(C(=O)O)cc(S(C)=O)c1Cl (centres undefined)	158 °C
CCOC(=O)CCn1c(=O)c(=O)[nH]c2cc(C(F)(F)F)c(-n3c(C)ccc3C)cc21	233 to 235 °C
CCOC(=O)C1C(=O)Nc2ccccc2C1c1ccccc1 (centres undefined)	178 to 180 °C
CN(Cc1sc2c(=O)c(C(=O)NCc3ccc(Cl)cc3)cn(C)c2c1CO)CC(O)c1ccc2ccccc2n1 (centres undefined)	196 to 198 °C
CC(C)n1nc(-c2sc(NC(=O)c3ccc(Cn4ccnc4)cc3)nc2-c2ccccc2)ccc1=O	> 250 °C
COc1ccc(NC(=O)Nc2ccc(Cl)c(Cl)c2)cc1NC(=S)Nc1ccc(Cl)c([N+](=O)[O-])c1	162 to 170 °C
CN1CCCCC1CCc1ccccc1NC(=O)C#Cc1ccccc1 (centres undefined)	104 to 106 °C
CCOC(=O)CCc1ccc(CCNS(=O)(=O)CCc2ccc(Cl)cc2)cc1	77 to 78 °C
CCCCCCCCCCCCS(=O)(=O)N[C@H]1CCCNC(=O)C1	100 to 101 °C
COC(=O)c1ccc2oc(-c3ccc(OC)cc3)cc2c1	157 to 159 °C
O=C1c2c(-c3ccccc3)noc2CCC1CCCN1CCCCC1 (centres undefined)	91.5 to 93.5 °C
CCOC(=O)c1cccc(Nc2ncc3cc(-c4c(Cl)cccc4Cl)c(=O)n(C)c3n2)c1	238 to 240 °C
O=S1(=O)c2cccc3cccc(c23)N1CCCl	96 °C
O=C(c1cccs1)c1cnn2c(-c3cccc(N4CCCC4=O)c3)ccnc12	> 200 °C
O=C(Cc1ccc(OCc2ccccc2)cc1)Nc1nnc(-c2cccc(Oc3cccc(C(F)(F)F)c3)c2)s1	194 to 195 °C
CCOC(=O)c1cn(NCC(=O)OC)c2cc3c(cc2c1=O)OCO3	142 to 145 °C
Clc1ccc2c(c1)Cc1ccccc1CN2	137 to 141 °C
Cc1cc(C#N)cn2cc(-c3cccc(Br)c3)nc12	168 to 170 °C

Source: a melting point compilation (Tetko et al.; mined from patent text by program, amines drawn as free bases though some values may be those of a salt)
